Test results: paper PMC5665883, “Antithrombotic properties of JJ1, a potent and novel thrombin inhibitor” (Scientific Reports, 2017)
Marks after values point to notes of the source that are not given here.

Experiments:
Plasmin = biological target: T1, Plasmin (Homo sapiens, UniProt P00747); assay: Chromogenic substrate assay, Ki (Dixon); assay type: biochemical
T1 construct: thrombin versus trypsin, factor Xa, elastase, plasmin, protein Ca, streptokinase, tPA, and urokinase
Description: (§1) Chromogenic substrate assays were performed using a Labsystems IEMS (Cergy Pontoise, France) microtiter plate reader. K i values were calculated according to the method of Dixon[65]. In each assay, the compound was tested at a minimum of seven concentrations, in duplicate, to obtain an inhibition curve. The following general procedures were adopted for each assay. In a 96-well microtiter plate, 25 μL of inhibitor solution or buffer was added to 50 μL of substrate. The enzyme solution (25 μL) was added just before the plate was placed in the microtiter plate reader for 1 h at 37 °C. The hydrolysis of the substrate yields p-nitroaniline, which was continuously monitored spectrophotometrically at 405 nm. The maximal initial reaction rates were calculated and expressed as millioptical density per minute.

Urokinase = Urokinase (Homo sapiens, UniProt P00749); assay: Chromogenic substrate assay, Ki (Dixon); assay type: biochemical
Description: as §1

thrombin [1] = biological target: T2, thrombin (Homo sapiens, UniProt P00734); assay: Thrombin activity assay (amidolytic activity, S-2238); assay type: biochemical; settings: α-Thrombin, chromogenic substrate; read-out: IC50, inhibition of amidolytic activity of thrombin (converted)
T2 construct: thrombin solution (150 μL, 10 U/mL) was added; purchased Haematologic Technologies (Essex Junction, VT)
Description: Following a 2-min incubation at 37 °C, thrombin solution (150 μL, 10 U/mL) was added, followed by incubation at 37 °C for 1 min. A solution of the thrombin substrate, S-2238, (150 μL, 1.5 mM) solution was subsequently added and the absorbance at 405 nm was monitored for 120 s using a spectrophotometer (TECAN, Männedorf, Switzerland).

thrombin [2] = biological target: T2, thrombin; assay: Enzyme-based assay of purchased virtual screening molecules, single dose; assay type: biochemical; settings: single concentration of 50 μM
Description: Prior to the high-throughput virtual screening, we selected the best crystal structure for docking with DOCK 3.6[17] using the selected inhibitors and their physicochemically matched but topologically different decoys. […] Because the earlier enrichment of true positives is more important for high throughput SBVS, we used the value of LogAUC as a metric, selecting 2CF9-H[18] as the best structure. […] Besides, the enrichment at 1% (EF1) was 37.1. The values of LogAUC and EF1 were approximately two-fold higher than the averages (26.1 for LogAUC and 17.1 for EF1) (Figs 1 and S1). Some structures had higher AUC values than that of 2CF9-H, but the value of LogAUC was the highest for 2CF9-H (Fig. S1). The optimization necessitated the calculations of more than 2 million protein and ligand pairs. The high speed of DOCK 3.6 and the in-house Linux cluster system consisting of 128 cores efficiently managed the calculations in three days. Of the candidate molecules having the lowest scores in the high-throughput SBVS, we chose the molecules with desirable geometries and physicochemical properties by a simple manual and visual inspection. […] It is known that the scoring function of virtual screening itself is insufficient to capture such an abnormality. Table S1 and Fig. S2 list the top 40 molecules, which were selected through high-throughput SBVS; we purchased these molecules to measure enzymatic inhibitory activity.

[3] = In vivo tail bleeding time; design: species or system C57BL/6 mice; settings: mice, i.v. injection, 1 h after administration
Description: Tail bleeding times were measured by using the method of Dejana et al.[63],[64]. Briefly, C57BL/6 mice were fasted overnight prior to the experiments. One hour after the i.v. administration of JJ1, the tails of the mice were transected at 2 mm from their tips. The bleeding time was defined as the time elapsed until the bleeding stopped. Bleeding times exceeding 15 min were recorded as lasting for 15 min.

Ex vivo PT clotting time = assay type: in vivo, C57BL/6 mice; settings: mice, i.v.; for PT: 1 h after administration
Description: The aPTT and PT were determined using a Thrombotimer (Behnk Elektronik, Norderstedt, Germany) in accordance with the manufacturer’s instructions and as previously described. Briefly, citrated normal human plasma (90 μL) was mixed with 10 μL JJ1 and incubated for 1 min at 37 °C. Subsequently, the aPTT assay reagent (100 μL) was added, the plasma sample was incubated for an additional 1 min at 37 °C, 20 mM CaCl2 (100 μL) was added, and the clotting times were recorded. For the PT assays, citrated normal human plasma (90 μL) was mixed with 10 μL JJ1 stock solution and was incubated for 1 min at 37 °C. The PT assay reagent (200 μL), which had been pre-incubated for 10 min at 37 °C, was subsequently added and the clotting time was recorded. The PT results were expressed in seconds and as International Normalized Ratios (INR): INR = (PT sample/PT control)^ISI, where ISI = international sensitivity index. The aPTT results were also expressed in seconds. All experimental protocols (KNUH 2012-01-010) were approved by the Institutional Review Board of Kyungpook National University Hospitals (Daegu, Republic of Korea).
Male C57BL/6 mice were fasted overnight. Each compound was dissolved in 0.5% DMSO and administered by i.v. injection. One hour after administration, arterial blood samples (0.1 mL) were collected in 3.8% sodium citrate (1:10, v/v) for the ex vivo aPTT and PT determination. The clotting times were determined as described above.

mouse platelet = assay: Ex vivo thrombin-induced platelet aggregation; assay type: in vivo; settings: i.v. injection
Description: The in vitro platelet aggregation study was performed according to a previously reported method[59],[62]. Washed human platelets were incubated with the indicated concentration of JJ1 in DMSO for 1, 3, 5, or 10 min and subsequently stimulated by thrombin in 0.9% saline solution at 37 °C for 5 min. Platelet aggregation was recorded using an aggregometer (Chronolog, Havertown, PA, USA). For the ex vivo aggregation assay, male mice were fasted overnight and the indicated concentration of JJ1 in DMSO was administered by i.v. injection. After 24 h, PRP (10^9 platelets/mL) in a total volume of 240 μL was incubated at 37 °C for 1.5 min in the aggregometer with continuous stirring at 1000 rpm and subsequently stimulated with thrombin. Platelet aggregation was recorded as described above.

[4] = Acute pulmonary thrombosis induced by collagen and epinephrine; assay type: in vivo, C57BL/6 mice; settings: mice, i.v. 1 h before collagen (500 μg/kg) plus epinephrine (50 μg/kg)
Description: Male C57BL/6 mice were fasted overnight and divided into groups of 10 animals. JJ1 suspended in DMSO was administered to mice intravenously. After 1 h, a mixture of collagen (500 μg/kg) plus epinephrine (50 μg/kg) was injected into the tail vein of mice to induce acute thrombosis 1 h later. Each mouse was carefully examined for 15 min to determine whether the mouse was paralyzed, dead, or had recovered from the acute thrombotic challenge. Five separate experiments were performed and the results were subjected to statistical analysis.

human plasma = assay: In vitro aPTT clotting time; assay type: biochemical; settings: at the maximum antithrombotic dose

T1 sequence (P00747 581-810 limits assumed): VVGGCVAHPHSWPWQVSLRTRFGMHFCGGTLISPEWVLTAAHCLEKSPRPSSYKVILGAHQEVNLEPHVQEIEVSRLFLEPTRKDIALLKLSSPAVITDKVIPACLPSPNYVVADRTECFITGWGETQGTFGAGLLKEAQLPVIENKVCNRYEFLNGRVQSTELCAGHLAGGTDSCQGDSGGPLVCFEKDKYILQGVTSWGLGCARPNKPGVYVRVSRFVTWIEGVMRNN
T1 sequence (P00747 97-580 limits assumed): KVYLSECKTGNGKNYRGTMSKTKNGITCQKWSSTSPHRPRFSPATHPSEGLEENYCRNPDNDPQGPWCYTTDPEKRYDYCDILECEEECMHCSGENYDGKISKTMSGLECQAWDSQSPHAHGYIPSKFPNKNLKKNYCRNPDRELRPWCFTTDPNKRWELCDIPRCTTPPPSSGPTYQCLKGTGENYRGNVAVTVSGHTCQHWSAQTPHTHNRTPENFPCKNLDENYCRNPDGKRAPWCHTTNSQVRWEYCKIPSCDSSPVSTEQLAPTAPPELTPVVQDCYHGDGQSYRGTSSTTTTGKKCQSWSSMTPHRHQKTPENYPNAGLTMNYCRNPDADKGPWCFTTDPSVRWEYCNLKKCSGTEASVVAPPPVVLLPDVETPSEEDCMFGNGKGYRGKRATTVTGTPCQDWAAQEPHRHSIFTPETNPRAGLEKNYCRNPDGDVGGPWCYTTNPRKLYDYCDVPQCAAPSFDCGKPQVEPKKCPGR

## c1ccc2c(NC3CCCC3)nc(Nc3ccncc3)nc2c1 [JJ1]
Plasmin; K i Plasmin/K i α-thrombin
  Selectivity ratio: >10,000
Plasmin; Plasmin
  Ki: > 250 µM
Urokinase; K i Urokinase/K i α-thrombin
  Selectivity ratio: >10,000
Urokinase; Urokinase
  Ki: > 250 µM
Thrombin [1]
  IC50: 0.15 µM
Thrombin [2]
  Degree of inhibition in the enzyme-based assay: inhibitory effects
[3]; 0.31 μg/mouse
  Tail bleeding time: 30.6 ± 0.8 s
[3]; 0.61 μg/mouse
  Tail bleeding time: 37.2 ± 1.0 s
[3]; 1.23 μg/mouse
  Tail bleeding time: 44.8 ± 1.2 s
[3]; 3.06 μg/mouse
  Tail bleeding time: 52.2 ± 1.4 s
Ex vivo PT clotting time; 0.31 μg/mouse
  PT (INR): 1.08 INR
  PT: 12.4 ± 0.5 s
Ex vivo PT clotting time; 0.61 μg/mouse
  PT (INR): 2.37 INR
  PT: 17.2 ± 1.4 s
Ex vivo PT clotting time; 1.23 μg/mouse
  PT (INR): 4.42* INR
  PT: 22.3 ± 0.6 s
Ex vivo PT clotting time; 3.06 μg/mouse
  PT (INR): 6.88* INR
  PT: 26.8 ± 0.4 s
Mouse platelet
  Mouse platelet aggregation induced by thrombin, ex vivo: confirmed in an ex vivo platelet aggregation assay
[4]
  Mortality: decreased significantly
Human plasma
  Prolongation of aPTT: 2.17 fold
